Measured values reported in patent US12161654B2, “Stability of vitamin D in β-hydroxy-β-methylbutyrate (HMB)” (Metabolic Technologies, LLC, priority 2018, dated 2024).

Experiments:
[1] = healthy young or old adults; cited from earlier work
[2] = after HMB is fed; cited from earlier work
[3] = pH of HMBFA and buffered HMBFA; assay type: physicochemical
Excerpt: In most instances, the HMB utilized in clinical studies and marketed as an ergogenic aid has been in the calcium salt form. Recent advances have allowed the HMB to be manufactured in a free acid form for use human and animal uses, and preferably as a nutritional supplement or incorporated into foodstuffs. […] The pH of HMBFA is <3.
Preparation of Buffered HMB in the Free Acid Form (HMBFA) Briefly, 400 g HMBFA (TSI lot 12111036) was weigh into a one liter beaker and then 37.8 g of with potassium carbonate (K2CO3) was added to the HMBFA. A stir bar was added and the mixture was stirred for 60 h. The resulting pH was approximately 4.5. Alternatively, the reaction may be accelerated by mixing water (35 g) with potassium carbonate (37) g and then adding HMBFA (400 g).

Question: Which results are given for `CC(C)(O)CC(=O)O` [HMB, β-hydroxy-β-methylbutyrate]?
Answer: side effects [1]: no side effects; loss of HMB to urine [2]: 20-50%

Question: For `CC(C)(O)CC(=O)O` [HMBFA, β-hydroxy-β-methylbutyrate], which pH [3] is on record?
Answer: < 3
